Data as given in patent US10952995B2, “Azaindoles as inhibitors of HPK1” (Genentech, Inc., priority 2017, dated 2021).
Where a name gives a salt, the structure may show the parent alone.

Target: HPK1 (Homo sapiens (Human), UniProt Q92918)
Experiment: HPK Lantha Binding Assay (TR-FRET, Tracer-222 / Eu-Anti-GST Ab)
Conditions: 2 nM HPK1, 2 nM Eu-Anti-GST Ab, 15 nM Tracer222, 60 min incubation; Morrison ki fit
Experimental: Methods for Biological evaluation to assess compound inhibition of HPK-1:
I. Compound Dilution: • 1. Prepare 12.5 uL/well of 5 mM of compounds (100×) to column 2 and column 13 & 10 ul/well DMSO in column 3-12, 14-23 and well A1-H1, I24-P24 of compound plate with Bravo. For reference compound, the top concentration is 1 mM • 2. Add 10 ul 2 mM staurosporine in well J1-P1 and A24-H24 • 3. Perform 11 point 5-fold compound serial dilution with Bravo • a. transfer 2.5 ul compounds from column 2 and column 13 to 10 ul of DMSO in column 3 and column 14 & so on • 4. Centrifuge the compound plate at 2500 rpm for 1 min • 5. Transfer 80 nl compounds into assay plate using Echo. One compound plate makes two assay plates • 6. Seal the assay plate and store in N2 cabinet.
2 nM HPK1, 2 nM Eu-Anti-GST Ab, 15 nM Tracer222, 60 min incubation
III. HPK Lantha Binding Assay: • 1. Add 4 ul 2×HPK1 and Eu-anti-GST antibody into each well of assay plate using Multidrop • 2. Incubate at 23 C incubator for 1 h • 3. Add 4 ul 2× Tracer-222 into each well of assay plate using Multidrop • 4. Incubate at 23 C incubator for 1 h • 5. Read the assay plate in Envision • a. TR_FRET, 340 ex/615 and 665 em • b. 100 usec Delay, 200 usec integration
IV. Analysis: • 1. Compound Ki was analyzed using Morrison ki fit model in XL-fit • a. fit=(1−((((E+x)+(Ki*(1[…](S/Kd))))−(((((E+x)+(Ki*(1+(S/Kd))))^2)−((4*E)*x))^0.5))/(2*E))) • res=(y-fit) • b. Parameters: • E=enzyme concentration • S=Tracer222 concentration, Kd=Tracer222 Kd • All in the same units (uM)

HPK1, sequence (Q92918 1-346): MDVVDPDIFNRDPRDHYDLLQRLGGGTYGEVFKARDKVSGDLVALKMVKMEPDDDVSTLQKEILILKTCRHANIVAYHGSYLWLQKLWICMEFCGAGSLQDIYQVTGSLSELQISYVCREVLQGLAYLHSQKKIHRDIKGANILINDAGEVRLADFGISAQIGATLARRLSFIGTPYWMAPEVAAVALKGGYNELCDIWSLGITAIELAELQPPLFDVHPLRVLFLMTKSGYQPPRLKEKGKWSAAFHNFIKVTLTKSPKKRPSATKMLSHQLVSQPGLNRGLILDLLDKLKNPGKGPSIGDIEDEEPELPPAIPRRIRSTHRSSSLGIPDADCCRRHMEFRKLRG

Ki	SMILES
2 nM	CCc1c(Cl)[nH]c2ncc(-c3cccc(N4CCOCC4=O)c3)cc12 [Compound 1-1, 4-(3-(2-chloro-3-ethyl-1H-pyrrolo[2,3]pyridin-5-yl)phenyl)morpholin-3-one]
3 nM	CCc1c(Cl)[nH]c2ncc(-c3ccc(N)c(C(=O)N(C)C)n3)cc12 [Compound 1-2, 3-amino-6-(2-chloro-3-ethyl-1H-pyrrolo[2,3-b]pyridin-5-yl)-N,N-dimethylpicolinamide]
15 nM	CCc1c(C)[nH]c2ncc(-c3ccc(N)c(C(=O)N(C)C)c3)cc12 [Compound 1-4, 2-amino-5-(3-ethyl-2-methyl-1H-pyrrolo[2,3-b]pyridin-5-yl)-N,N-dimethylbenzamide]
2 nM	CCc1c(Cl)[nH]c2ncc(-c3cccc(N4CCOCC4=O)n3)cc12 [Compound 1-5, 4-(6-(2-chloro-3-ethyl-1H-pyrrolo[2,3-b]pyridin-5-yl)pyridin-2-yl)morpholin-3-one]
15 nM	CCc1c(Cl)[nH]c2ncc(-c3ccc(N)c(C(=O)N4CC(O)C4)n3)cc12 [Compound 1-6, (3-amino-6-(2-chloro-3-ethyl-1H-pyrrolo[2,3-b]pyridin-5-yl)pyridin-2-yl)(3-hydroxyazetidin-1-yl)methanone formate]
33 nM	CCc1c(Cl)[nH]c2ncc(-c3ccnc(N4CCOC4=O)n3)cc12 [Compound 1-7, 3-(4-(2-chloro-3-ethyl-1H-pyrrolo[2,3-b]pyridin-5-yl)pyrimidin-2-yl)oxazolidin-2-one formate]
68 nM	Cc1[nH]c2ncc(-c3cccc(N4CCOCC4=O)n3)cc2c1C(F)(F)F [Compound 1-8, 4-(6-(2-methyl-3-(trifluoromethyl)-1H-pyrrolo[2,3-b]pyridin-5-yl)pyridin-2-yl)morpholin-3-one]
76 nM	Cc1[nH]c2ncc(-c3ccc(N)c(C(=O)N(C)C)n3)cc2c1C(F)(F)F [Compound 1-9, 3-amino-N,N-dimethyl-6-(2-methyl-3-(trifluoromethyl)-1H-pyrrolo[2,3-b]pyridin-5-yl)picolinamide]
32 nM	Cc1[nH]c2ncc(-c3ccc(N)c(C(=O)N(C)C)c3)cc2c1C(F)(F)F [Compound 1-10, 2-amino-N,N-dimethyl-5-(2-methyl-3-(trifluoromethyl)-1H-pyrrolo[2,3-b]pyridin-5-yl)benzamide]
13 nM	Cc1[nH]c2ncc(-c3ccc(N)c(N4CCOCC4=O)n3)cc2c1C(F)(F)F [Compound 1-11, 4-(3-amino-6-(2-methyl-3-(trifluoromethyl)-1H-pyrrolo[2,3-b]pyridin-5-yl)pyridin-2-yl)morpholin-3-one]
24 nM	Cc1[nH]c2ncc(-c3cc(N)cc(-c4ncccc4CO)c3)cc2c1C(F)(F)F [Compound 1-12, (2-(3-amino-5-(2-methyl-3-(trifluoromethyl)-1H-pyrrolo[2,3-b]pyridin-5-yl)phenyl)pyridin-3-yl)methanol]
1700 nM	O=C1COCCN1c1cccc(-c2cnc3[nH]c(CO)c(C(F)(F)F)c3c2)c1 [Compound 1-13, 4-(3-(2-(hydroxymethyl)-3-(trifluoromethyl)-1H-pyrrolo[2,3-b]pyridin-5-yl)phenyl)morpholin-3-one]
17 nM	O=C1COCCN1c1cccc(-c2cnc3[nH]c(Cl)c(CCF)c3c2)c1 [Compound 1-14, 4-(3-(2-chloro-3-(2-fluoroethyl)-1H-pyrrolo[2,3-b]pyridin-5-yl)phenyl) morpholin-3-one]
75 nM	Cc1[nH]c2ncc(-c3cccc(N4CCOCC4CO)n3)cc2c1C(F)(F)F (stereo not drawn) [Compound 1-15, (4-(6-(2-methyl-3-(trifluoromethyl)-1H-pyrrolo[2,3-b]pyridin-5-yl)pyridin-2-yl)morpholin-3-yl)methanol]
82 nM	Cc1[nH]c2ncc(-c3cccc(N4CCCNC4=O)n3)cc2c1C(F)(F)F [Compound 1-16, 1-(6-(2-methyl-3-(trifluoromethyl)-1H-pyrrolo[2,3-b]pyridin-5-yl)pyridin-2-yl)tetrahydropyrimidin-2(1H)-one]
1300 nM	Cc1cc2cc(-c3ccc(N)c(C(=O)N(C)C)c3)cnc2[nH]1 [Compound 1-17, 2-amino-N,N-dimethyl-5-(2-methyl-1H-pyrrolo[2,3-b]pyridin-5-yl)benzamide]
4 nM	CCc1c(F)[nH]c2ncc(-c3cccc(N4CCOCC4=O)c3)cc12 [Compound 1-18, 4-[3-(3-Ethyl-2-fluoro-1H-pyrrolo[2,3-b]pyridin-5-yl)phenyl]morpholin-3-one]
1 nM	CCc1c(F)[nH]c2ncc(-c3ccc(N)c(C(=O)N(C)C)c3F)cc12 [Compound 1-19, 6-Amino-3-(3-ethyl-2-fluoro-1H-pyrrolo[2,3-b]pyridin-5-yl)-2-fluoro-N,N-dimethylbenzamide]
17 nM	CN(C)C(=O)c1c(N)ccc(-c2cnc3[nH]c(Cl)c(CCO)c3c2)c1F [Compound 1-20, 6-Amino-3-[2-chloro-3-(2-hydroxyethyl)-1H-pyrrolo[2,3-b]pyridin-5-yl]-2-fluoro-N,N-dimethylbenzamide]
89 nM	O=C1COCCN1c1cccc(-c2cnc3[nH]c(Cl)c(CCO)c3c2)c1 [Compound 1-21, 4-{3-[2-Chloro-3-(2-hydroxyethyl)-1H-pyrrolo[2,3-b]pyridin-5-yl]phenyl}morpholin-3-one]
9.4 nM	CN(C)C(=O)c1cc(-c2cnc3[nH]c(Cl)c(CCO)c3c2Cl)ccc1N [Compound 1-22, 2-amino-5-(2,4-dichloro-3-(2-hydroxyethyl)-1H-pyrrolo[2,3-b]pyridin-5-yl)-N,N-dimethylbenzamide]
160 nM	COCc1c(Cl)[nH]c2ncc(-c3ccc(N)c(C(=O)N(C)C)c3F)cc12 [Compound 1-23, 6-amino-3-(2-chloro-3-(methoxymethyl)-1H-pyrrolo[2,3-b]pyridin-5-yl)-2-fluoro-N,N-dimethylbenzamide]
32 nM	CCc1c(Cl)[nH]c2ncc(-c3ccc(C4NCCNC4=O)cc3)cc12 (stereo not drawn) [Compound 1-24, 3-(4-(2-chloro-3-ethyl-1H-pyrrolo[2,3-b]pyridin-5-yl)phenyl)piperazin-2-one]
31 nM	CCc1c(Cl)[nH]c2ncc(-c3cccc(C4NCCNC4=O)c3)cc12 (stereo not drawn) [Compound 1-25, 3-(3-(2-chloro-3-ethyl-1H-pyrrolo[2,3-b]pyridin-5-yl)phenyl)piperazin-2-one]
12 nM	CN(C)C(=O)c1c(N)ccc(-c2cnc3[nH]c(Cl)c(CCO)c3c2Cl)c1F [Compound 1-26, 6-amino-3-(2,4-dichloro-3-(2-hydroxyethyl)-1H-pyrrolo[2,3-b]pyridin-5-yl)-2-fluoro-N,N-dimethylbenzamide]
2.7 nM	CCc1c(Cl)[nH]c2ncc(-c3ccc(N)c(C(=O)N(C)C)c3F)cc12 [Compound 1-27, 6-amino-3-(2-chloro-3-ethyl-1H-pyrrolo[2,3-b]pyridin-5-yl)-2-fluoro-N,N-dimethylbenzamide]

SMILES	Ki
CCc1c(Cl)[nH]c2ncc(-c3ccc(N)c(C(=O)N(C)C)c3)cc12 [Compound 1-3, 2-amino-5-(2-chloro-3-ethyl-1H-pyrrolo[2,3-b]pyridin-5-yl)-N,N-dimethylbenzamide]	0.9 nM
